Measured values reported in PMC3222274 (Molecular and biochemical parasitology, 2011).

Assays:
[1] = target: Dv-ACE-1 (Dictyocaulus viviparus, UniProt Q0H0R6); experiment: Ellman assay, transfected COS-7 extract, logistic fit; format: biochemical
[2] = test system: CC(=O)SCC[N+](C)(C)C; experiment: Ellman assay, transfected COS-7 extract, fit with Km, Kss and b; format: biochemical, Dictyocaulus viviparus; conditions: pH 7, 0.3 mM DTNB, 167 mM NaCl, substrate-inhibition model
[3] = test system: CCC(=O)SCC[N+](C)(C)C; experiment: as above; format: biochemical, Dictyocaulus viviparus; conditions: pH 7, 0.3 mM DTNB, 167 mM NaCl, substrate-inhibition model
[4] = test system: CCCC(=O)SCC[N+](C)(C)C; experiment: as above; format: biochemical, Dictyocaulus viviparus; conditions: pH 7, 0.3 mM DTNB, 167 mM NaCl, substrate-activation model

| Molecule | IC50 [1] [µM] | Km [2] | Km [3] | Km [4] |
| --- | --- | --- | --- | --- |
| C=CC[N+](C)(C)c1ccc(CCC(=O)CCc2ccc([N+](C)(C)CC=C)cc2)cc1 [BW284c51] | 0.303 | – | – | – |
| Dv-ACE-1 (Dictyocaulus viviparus) | – | 7.51 ± 0.21 × 10^−4 M | 1.59 ± 0.03 × 10^−3 M | 4.32 ± 1.61 × 10^−5 M |
| CNC(=O)Oc1ccc2c(c1)[C@]1(C)CCN(C)[C@@H]1N2C [physostigmine] | 0.126 | – | – | – |
| CC(C)NP(=O)(NC(C)C)OP(=O)(NC(C)C)NC(C)C [iso-OMPA] | > 3000 | – | – | – |
| CCN(CC)C(C)CN1c2ccccc2Sc2ccccc21 (stereo not shown) [ethopropazine] | 137 | – | – | – |
